The values below are quoted from earlier work in patent US7901914B2, “Microbiological method of the biosynthesis of natural blue-violet colorants violacein and deoxyviolacein and the utilization thereof” (Stiftung Alfred-Wegener-Institut fuer Polar- und …, priority 2000, dated 2011).

As for `O=C1NC(c2c[nH]c3ccc(O)cc23)=C/C1=C1\C(=O)Nc2ccccc21` [violacein, 3-[1,2-dihydro-5-(5-hydroxy-1H-indole-3-yl)-2-oxo-3-H-pyrrole-3-ylidene]-1,3-dihydro-2H-indole-2-on], under “in acetone, ethanol and dioxane”, the “solubility in organic solvents” value is listed as “soluble”. Moreover, the solubility in water result (in water) is given as “practically insoluble”.
